This is an account of results in patent US7025992B2, “Pharmaceutical formulations” (priority 2001, dated 2006).

Series [1] in a line: Stability on storage, assay as percentage of initial value. In kind it is physicochemical. As to conditions: for stability in the formulation (in words): conclusion from Table 5. The text has this: The data are reported as percentage of initial assay value.
A short description of series [2]: CBD given before THC, cognitive effects. The series is classed as in vivo. The conditions noted are these: CBD (or CBDV) administered before THC; not observed if THC is given before CBD.
Series [3] addresses CB1 (Brain receptors) (Homo sapiens, UniProt P21554). As to conditions: cited from earlier work.
The conditions of series [4]: Table 3; Brown, 1998; cited from earlier work.
Series [5] in a line: Solubility of cannabinoids.
A short description of series [6]: Subject reports on THCV (mood enhancement, hangover). In kind it is in vivo. The conditions noted are these: compared with THC.
The nature of series [7]: Analgesic effect of THCV vs THC. The conditions noted are these: compared with THC. In kind it is in vivo.
For series [8] the following is noted: stated as known; cited from earlier work.
Series [9] is described as follows: Absorption (AUC) of cannabinoid and primary metabolite in blood after dosing. As to conditions: after oropharyngeal (buccal) administration compared with sublingual.
Series [10] can be described thus: Pain relief, THC alone vs extract of cannabis. In kind it is in vivo. The conditions noted are these: THC alone vs same quantity of THC given as an extract of cannabis.
For series [11] the following is noted: Table 3 footnote; cited from earlier work.
For series [12] the following is noted: Table 3 footnote; naïve patients may show postural hypotension, hypertension reported on prolonged usage; cited from earlier work.

“Also recorded” adds a separate entry of the source.

CB1 (Brain receptors), sequence (P21554 whole entry, species assumed): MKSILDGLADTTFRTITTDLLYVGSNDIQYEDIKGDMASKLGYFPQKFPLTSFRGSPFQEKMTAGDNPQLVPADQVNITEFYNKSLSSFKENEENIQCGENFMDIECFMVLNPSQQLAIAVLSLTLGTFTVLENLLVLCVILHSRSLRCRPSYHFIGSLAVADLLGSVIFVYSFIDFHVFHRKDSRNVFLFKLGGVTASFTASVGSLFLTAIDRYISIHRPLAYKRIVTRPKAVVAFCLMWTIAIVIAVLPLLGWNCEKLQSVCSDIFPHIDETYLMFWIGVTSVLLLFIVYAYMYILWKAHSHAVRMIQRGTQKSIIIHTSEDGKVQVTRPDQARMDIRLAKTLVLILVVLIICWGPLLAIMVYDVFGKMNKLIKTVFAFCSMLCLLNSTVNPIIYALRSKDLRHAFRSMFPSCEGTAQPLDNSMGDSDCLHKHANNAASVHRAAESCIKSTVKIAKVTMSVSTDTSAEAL

Turning to `C=C(C)[C@@H]1CCC(C)=C[C@H]1c1c(O)cc(CCCCC)cc1O` [CBD, cannabidiol], the “stability in the formulation (in words)” value in series [1] is “good stability”. The “effect as pharmaceutical stabilizer” value in series [1] (observation of the applicants) is “able to act as a pharmaceutical stabilizer of pharmaceutical formulations and thus prolong shelf-life”. Further, in [2], the “psychoactive effects of THC” value is on record as “diminished”; the subsequent sedation entry is “postponed and mitigated”. The “CB1 (Brain receptors)” value in series [3] was “∀”. In addition, the Anti-inflammatory result in series [4] was “∀”. Further, the “solubility in aqueous excipients” value in series [5] is given as “very low solubility”.
Regarding `CCCc1cc(O)c2c(c1)OC(C)(C)[C@@H]1CCC(C)=C[C@@H]21` [THCV, tetrahydrocannabinovarin], the hangover result in [6] is reported as “less severe hangover; also recorded: reduced potential for hangover”. Besides, the mood enhancement entry in [6] (reported by subjects taking THCV) was “less disturbing than that produced by THC”. Moreover, the “analgesic effect, speed” value in series [7] is recorded as “more rapid analgesic effect than THC”.
With `CCCCCc1cc(O)c2c(c1)OC(C)(C)[C@@H]1CCC(CO)=C[C@@H]21` [11 OH THC], the “psychoactivity relative to parent compound” value in [8] is recorded as “possibly more psychoactive than the parent compound”. Besides, in series [9], the “reduction in the amount of 11 OH metabolite detected” value is listed as “approximately 25%”.
`CCCCCc1cc(O)c2c(c1)OC(C)(C)[C@@H]1CCC(C)=C[C@@H]21` [THC, Δ^9-tetrahydrocannabinol]: the “stability in the formulation (in words)” value in series [1] is on record as “less stable”. In addition, the “degree of pain relief” value in [10] was “lower degree of pain relief than the same quantity of THC given as an extract of cannabis”. The Anti-inflammatory result in series [4] was “∀”. The “convulsant effect (footnote H to Anticonvulsant)” value in [11] is “H THC is pro convulsant”. For the same compound, in [12], the “effect on blood pressure (footnote ′)” value was “′ THC has a biphasic effect on blood pressure; in naïve patients it may produce postural hypotension and it has also been reported to produce hypertension on prolonged usage. GW Internal Report No 002/000159”. Moreover, the “solubility in aqueous excipients” value in series [5] was “very low solubility”. In [5] (aerosol sprays containing ethanol plus a propellant), the “amount of THC that could be stabilised” value is 0.7 mg of THC per 0.1 ml of liquid formulation.
With `C=C(C)[C@@H]1CCC(C)=C[C@H]1c1c(O)cc(CCC)cc1O` [CBDV, cannabidivarin], in [2], the “psychoactive effects of THC” value is “diminished”; the subsequent sedation result is “postponed and mitigated”.
